Source: patent US20240041042A1, “1-(PYRIDYL)-5-AZINYLPYRAZOLE DERIVATIVES, AND THEIR USE FOR CONTROL OF UNDESIRED PLANT GROWTH” (Bayer Aktiengesellschaft, priority 2020, published 2024)
Like-named read-outs stand apart in the source and are kept apart here.

Columns and labels:
Assay type in all cases: in vivo
[1] = system: Amaranthus retroflexus (AMARE); assay: Pre-emergence herbicidal action against AMARE; details: 320 g/ha, visual scoring after about 3 weeks vs untreated controls
Summary of the method: (§1)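 Greenhouse pot trial: seeds sown, soil-covered, sprayed before emergence with compound in water (0.5% additive; 600 l/ha; ≤320 g/ha). Scoring visual, ~3 weeks, 0–100% scale vs untreated.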

[2] = system: Glycine max (GLXMA); details: pre-emergence, 80 g/ha, crop plant compatibility, in comparison to untreated controls
Summary of the method: (§2)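 Scoring: visual, % of untreated control, about 3 weeks after a pre-emergence application to the soil surface. Application used WP or EC formulations diluted in water with 0.5% additive at 600 l/ha; dosage levels are marked by suffixes a, b and c.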

[3] = system: Oryza sativa (ORYSA); details: pre-emergence, crop plant compatibility, in comparison to untreated controls
Summary of the method: as §2

[4] = system: Triticum aestivum (TRZAS); details: pre-emergence, crop plant compatibility, in comparison to untreated controls
Summary of the method: as §2

[5] = system: Zea mays (ZEAMX); details: pre-emergence, crop plant compatibility, in comparison to untreated controls
Summary of the method: as §2

[6] = system: Amaranthus retroflexus (AMARE); assay: Post-emergence herbicidal action against AMARE
Summary of the method: (§3)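 Doses of 320 g/ha or lower, suffixes a, b and c marking different dosages, were applied post-emergence at the one-leaf stage in 600 l/ha water with 0.5% additive. Damage was assessed visually after about 3 weeks in the greenhouse.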

[7] = system: Pharbitis purpurea (PHBPU); assay: Post-emergence herbicidal action against PHBPU; details: dosage 80 g/ha
Summary of the method: as §3

[8] = system: Oryza sativa (ORYSA); details: crop plant compatibility
Summary of the method: (§4)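 Percent effect on the crop was judged by eye against untreated controls, where 0% means like control and 100% means dead plants. Plants had been sprayed post-emergence at the one-leaf stage and then kept under optimum greenhouse conditions for about 3 weeks.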

[9] = system: Triticum aestivum (TRZAS); details: crop plant compatibility, effect vs untreated controls
Summary of the method: as §4

[10] = system: Zea mays (ZEAMX); details: for Post-emergence action against ZEAMX in % (crop plant compatibility): 20 g/ha, effect in comparison to untreated controls; for Post-emergence action against ZEAMX in %: crop plant compatibility, effect vs untreated controls
Summary of the method: as §4

[11] = system: Setaria viridis (SETVI); assay: Pre-emergence herbicidal action against SETVI; details: dosage 320 g/ha
Summary of the method: as §1

[12] = system: Viola tricolor (VIOTR); assay: Post-emergence herbicidal action against VIOTR; details: 320 g/ha
Summary of the method: as §3

[13] = 80 g/ha, visual rating about 3 weeks after treatment vs untreated controls (100% = plants have died, 0% = like control plants)
[14] = 20 g/ha, effect vs untreated controls
[15] = 80 g/ha, effect in comparison to untreated controls

SMILES	Pre-emergence action against AMARE in % [1]	Pre-emergence action against GLXMA in % [2]	Pre-emergence action against ORYSA in % ([3]; 80 g/ha)	Pre-emergence action against ORYSA in % ([3]; 320 g/ha)	Pre-emergence action against TRZAS in % ([4]; 80 g/ha)	Pre-emergence action against ZEAMX in % ([5]; 80 g/ha)	Pre-emergence action against ZEAMX in % ([5]; 320 g/ha)	Post-emergence action against AMARE in % [6, 13]	Post-emergence action against PHBPU in % [7]	Post-emergence action against ORYSA in % [8, 14]	Post-emergence action against ORYSA in % [8, 15]	Post-emergence action against TRZAS in % ([9]; 20 g/ha)	Post-emergence action against ZEAMX in % (crop plant compatibility) [10]	Post-emergence action against ZEAMX in % ([10]; 80 g/ha)	also measured
COC(=O)[C@H](C)COC(=O)COc1nn(-c2ccnc(Cl)c2)c(-c2ccc(F)nc2)c1Br [III-17]	90%	0%	0%	10%	0%	20%	20%	80%	80%	0%	0%	20%	20%	20%	–
COC(=O)[C@H](C)NC(=O)COc1nn(-c2ccnc(Cl)c2)c(-c2ccc(F)nc2)c1Br [III-18]	–	0%	0%	0%	0%	20%	20%	80%	–	0%	0%	0%	0%	0%	Pre-emergence action against TRZAS in % ([4]; 320 g/ha): 20%; Post-emergence action against TRZAS in % ([9]; 80 g/ha): 0%
COC(=O)CCOC(=O)COc1nn(-c2ccnc(Cl)c2)c(-c2ccc(F)nc2)c1Br [III-19]	80%	0%	0%	20%	20%	–	–	80%	80%	0%	0%	20%	0%	–	–
COC(=O)CCOC(=O)COc1nn(-c2ccnc(F)c2)c(-c2ccc(F)nc2)c1Br [III-27]	–	0%	0%	20%	20%	10%	20%	80%	–	–	0%	–	–	10%	Pre-emergence action against SETVI in % [11]: 90%; Post-emergence action against AMARE in % ([6]; 320 g/ha, visual rating about 3 weeks after treatment): 80%; Post-emergence action against VIOTR in % [12]: 80%; Post-emergence action against ORYSA in % ([8]; 320 g/ha, effect in comparison to untreated controls): 0%; Post-emergence action against ZEAMX in % ([10]; 320 g/ha): 10%
